Measurements as given in patent US5981558A, “DC107 derivatives” (Kyowa Hakko Kogyo Co., Ltd., priority 1996, dated 1999).
Converted amounts (≈) assume the structure as drawn. Where two headings read alike, the source gives them in different places.

Key:
[1] = tested on: BS: Bacillus substilis No. 10707; experiment: Antimicrobial activity by the agar dilution method (MIC); type: cell-based
Experimental: (§1) Antimicrobial activity was determined by the agar dilution method using a culture medium (pH 7) prepared by dissolving 3 g of Bacto-Tryptone (manufactured by Difco, Co.), 3 g of meat extract, 1 g of yeast extract, 1 g of glucose, and 16 g of agar in 1 l of water.

[2] = tested on: KP: Klebisiella pneumoniae ATCC 10031; experiment: as above; type: cell-based
Experimental: as §1

[3] = tested on: SA: Staphylococcus aureus ATCC 6538P; experiment: as above; type: cell-based; conditions: ATCC6538P
Experimental: as §1

[4] = tested on: EH: Enterococcus hirae ATCC 10541; experiment: as above; type: cell-based; conditions: pH 7
Experimental: as §1

[5] = tested on: Sarcoma 180 mouse solid tumor; experiment: Antitumor activity against Sarcoma 180 mouse solid tumor; type: in vivo, mouse (ddY); conditions: Sarcoma-180, iv, 168 h
Experimental: To a ddY mouse were intraperitoneally transplanted 5×10^6 sarcoma 180 cells. On the seventh day from the transplant, the cells were collected from the ascites, washed once with sterilized physiological saline, and then diluted with sterilized physiological saline to prepare a cell suspension having a concentration of 5×10^7 cells/mL. This suspension was transplanted in an amount of 0.01 mL to a subcutaneous part of the right axilla of each of male ddY mice each weighing 20±1 g.
A test compound was dissolved in physiological saline containing polyoxyethylene sorbitan monolaurate. At 24 hours after the tumor transplant, 0.2 mL of the solution was intravenously administered to the tail of each of a group of five mice.

[6] = tested on: EC: Escherichia coli ATCC 26; experiment: Antimicrobial activity by the agar dilution method (MIC); type: cell-based; conditions: ATCC26; Escherichia coli ATCC 26; agar dilution, pH 7; read-out: minimum inhibitory concentration (MIC), EC
Experimental: as §1

HeLa S3 cells = experiment: HeLa S3 Cell Growth Inhibition Test; type: cell-based; conditions: Homo sapiens, 72 hours incubation, Neutral Red
Summary of the method: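 HeLa S3 cells seeded overnight in MEM with 10% FBS, then exposed to compound for 72 h at 37 °C. Viable cells stained with Neutral Red, dye extracted, absorbance read at 550 nm; IC50 derived against untreated cells.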

[7] = Bacillus, pH 7, read-out: minimum inhibitory concentration (MIC), BS
[8] = pH 7, read-out: minimum inhibitory concentration (MIC), KP
[9] = Staphylococcus aureus, pH 7, read-out: minimum inhibitory concentration (MIC), SA
[10] = read-out: T/C (tumor volume ratio treated/control)
[11] = Bacillus substilis No. 10707, agar dilution, pH 7, read-out: minimum inhibitory concentration (MIC), BS
[12] = Klebisiella pneumoniae ATCC 10031, agar dilution, pH 7, read-out: minimum inhibitory concentration (MIC), KP
[13] = Staphylococcus aureus ATCC 6538P, agar dilution, pH 7, read-out: minimum inhibitory concentration (MIC), SA
[14] = HeLa S3, 72 h, HeLa S3, read-out: IC50, HeLa S3 cell growth inhibition
[15] = HeLa S3, 72 h, read-out: IC50, HeLa S3 cell growth inhibition, HeLa S3

SMILES: C/C1=C\C(O)C(=O)/C=C/C=C\c2csc(n2)C(C)N2C(=O)CC(C(C)(O)C(=O)SCc3oc(=O)oc3COC(=O)CN(C)C)(CC1)[S+]2[O-] (stereo not drawn) [Compound 158]
- MIC [1, 7]: < 0.041 µg/mL
- MIC [2, 8]: 1.3 µg/mL (≈ 1.8 µM)
- MIC [3, 9]: 0.33 µg/mL (≈ 0.456 µM)
- minimum inhibitory concentration (MIC), EH [4]: 0.33 µg/mL (≈ 0.456 µM)
- response vs control in vivo at 32 mg/kg [5, 10]: 31%

SMILES: COCCOCCOCC(=O)OCSC(=O)C(C)(O)C12CCC(C)=CC(O)C(=O)C=CC=Cc3csc(n3)C(C)N(C(=O)C1)[S+]2[O-] (stereo not drawn) [Compound 35]
- MIC [1, 11]: 0.39 µg/mL (≈ 0.556 µM)
- MIC [2, 12]: 0.39 µg/mL (≈ 0.556 µM)
- MIC [3, 13]: 0.39 µg/mL (≈ 0.556 µM)
- minimum inhibitory concentration (MIC), EH [4]: 0.39 µg/mL (≈ 0.556 µM)
- MIC [6]: 13 µg/mL (≈ 18.5 µM)
- response vs control in vivo at 2 mg/kg ([5]; 2.0 mg/kg i.v. once, 24 hours after transplant, tumor volume on day 7, read-out: T/C (tumor volume ratio treated/control)): 44%
- IC50 (HeLa S3 cells; [14]): 22 nM

SMILES: C/C1=C\C(OC2CCCCO2)C(=O)/C=C/C=C\c2csc(n2)C(C)N2C(=O)CC(C(C)(O)C(=O)SCc3oc(=O)oc3COC3C[C@H](O[Si](C)(C)C(C)(C)C)[C@@H](O[Si](C)(C)C(C)(C)C)[C@H](C)O3)(CC1)[S+]2[O-] (stereo partly drawn) [Compound 80]
- MIC [1, 11]: 0.42 µg/mL (≈ 0.388 µM)
- MIC [2, 12]: 27 µg/mL (≈ 25 µM)
- MIC [3, 13]: 3.4 µg/mL (≈ 3.14 µM)
- minimum inhibitory concentration (MIC), EH [4]: 3.4 µg/mL (≈ 3.14 µM)
- response vs control in vivo at 16 mg/kg ([5]; 16 mg/kg i.v. once, 24 hours after transplant, tumor volume on day 7, read-out: T/C (tumor volume ratio treated/control)): 37%
- IC50 (HeLa S3 cells; HeLa S3, read-out: IC50, HeLa S3 cell growth inhibition): 330 nM

SMILES: C/C1=C\C(O)C(=O)/C=C/C=C\c2csc(n2)C(C)N2C(=O)CC(C(C)(O)C(=O)SCOC(=O)CCCNC(=O)C(C)(CO)CO)(CC1)[S+]2[O-] (stereo not drawn) [Compound 139]
- MIC [1, 7]: 12 µg/mL (≈ 16.2 µM)
- MIC [2, 8]: 25 µg/mL (≈ 33.7 µM)
- MIC [3, 9]: 25 µg/mL (≈ 33.7 µM)
- minimum inhibitory concentration (MIC), EH [4]: 12 µg/mL (≈ 16.2 µM)
- response vs control in vivo at 4 mg/kg [5, 10]: 33%

SMILES: COC(=O)[C@H](CCC(=O)OCSC(=O)C(C)(O)C12CCC(C)=CC(O)C(=O)C=CC=Cc3csc(n3)C(C)N(C(=O)C1)[S+]2[O-])NC(=O)[C@@]12O[C@H]3COC(C)(C)O[C@H]3[C@@H]1OC(C)(C)O2 (stereo partly drawn) [Compound 24]
- MIC [1, 7]: 23 µg/mL (≈ 24.5 µM)
- MIC [2, 8]: 46 µg/mL (≈ 48.9 µM)
- MIC [3, 9]: 23 µg/mL (≈ 24.5 µM)
- minimum inhibitory concentration (MIC), EH [4]: 23 µg/mL (≈ 24.5 µM)
- response vs control in vivo at 16 mg/kg [5, 10]: 12%
- IC50 (HeLa S3 cells; [15]): 550 nM

SMILES: COCOCc1oc(=O)oc1CSC(=O)C(C)(O)C12CC/C(C)=C/C(O)C(=O)/C=C/C=C\c3csc(n3)C(C)N(C(=O)C1)[S+]2[O-] (stereo not drawn) [Compound 77]
- MIC [1, 11]: 0.36 µg/mL (≈ 0.527 µM)
- MIC [2, 12]: 0.36 µg/mL (≈ 0.527 µM)
- MIC [3, 13]: 0.36 µg/mL (≈ 0.527 µM)
- minimum inhibitory concentration (MIC), EH [4]: 0.18 µg/mL (≈ 0.264 µM)
- MIC [6]: 11 µg/mL (≈ 16.1 µM)
- response vs control in vivo at 8 mg/kg ([5]; 8.0 mg/kg i.v. once, 24 hours after transplant, tumor volume on day 7, read-out: T/C (tumor volume ratio treated/control)): 36%
- IC50 (HeLa S3 cells; [14]): 7.7 nM

SMILES: COC(=O)NCC(=O)OCSC(=O)C(C)(O)C12CCC(C)=CC(O)C(=O)C=CC=Cc3csc(n3)C(C)N(C(=O)C1)[S+]2[O-] (stereo not drawn) [Compound 17]
- MIC [1, 11]: 0.65 µg/mL (≈ 0.991 µM)
- MIC [2, 12]: 0.65 µg/mL (≈ 0.991 µM)
- MIC [3, 13]: 0.65 µg/mL (≈ 0.991 µM)
- minimum inhibitory concentration (MIC), EH [4]: 1.3 µg/mL (≈ 1.98 µM)
- MIC [6]: 42 µg/mL (≈ 64 µM)
- IC50 (HeLa S3 cells; [14]): 15 nM

SMILES: COC(=O)NCC(=O)OCOC1C=C(C)CCC2(C(C)(O)C(=O)SCOC(=O)CNC(=O)OC)CC(=O)N(C(C)c3nc(cs3)C=CC=CC1=O)[S+]2[O-] (stereo not drawn) [Compound 18]
- MIC [1, 11]: 11 µg/mL (≈ 13.7 µM)
- MIC [2, 12]: 2.9 µg/mL (≈ 3.62 µM)
- MIC [3, 13]: 11 µg/mL (≈ 13.7 µM)
- minimum inhibitory concentration (MIC), EH [4]: 5.7 µg/mL (≈ 7.12 µM)
- response vs control in vivo at 4 mg/kg ([5]; 4.0 mg/kg i.v. once, 24 hours after transplant, tumor volume on day 7, read-out: T/C (tumor volume ratio treated/control)): 38%
- IC50 (HeLa S3 cells; [14]): 150 nM

SMILES: COC(=O)[C@H](CCC(=O)OCSC(=O)C(C)(O)C12CC/C(C)=C/C(O)C(=O)/C=C/C=C\c3csc(n3)C(C)N(C(=O)C1)[S+]2[O-])NC(=O)[C@@]12O[C@@H](CO)[C@@H](O)[C@@H]1OC(C)(C)O2 (stereo partly drawn) [Compound 60]
- MIC [1, 7]: 15 µg/mL (≈ 16.7 µM)
- MIC [2, 8]: 15 µg/mL (≈ 16.7 µM)
- MIC [3, 9]: 15 µg/mL (≈ 16.7 µM)
- minimum inhibitory concentration (MIC), EH [4]: 7.3 µg/mL (≈ 8.11 µM)
- response vs control in vivo at 8 mg/kg [5, 10]: 31%
- IC50 (HeLa S3 cells; [15]): 550 nM
